US10858360B2, “Tricyclic gyrase inhibitors” (priority 2011, dated 2020)
Values after ≈ are worked out from the molar mass of the structure shown.

Assays:
Format in all cases: cell-based
[1] = tested on: S. aureus ATCC 13709; assay: MIC, S. aureus ATCC 13709 (Alamar Blue broth microdilution); conditions: for MIC: Staphylococcus aureus
[2] = tested on: Y. pestis CO92 pgm-; assay: microbe, parasite or virus in culture; conditions: for MIC: Yersinia pestis, CO92PGM, read-out: MIC Yp; for MIC Yp: Yp = Y. pestis
[3] = tested on: A. baumannii ATCC 19606; assay: MIC, A. baumannii ATCC 19606; conditions: strain not given; for MIC: Acinetobacter baumannii, ATCC19606, Ab = A. baumannii
[4] = tested on: K. pneumoniae ATCC 700603; assay: MIC, K. pneumoniae ATCC 700603; conditions: for MIC: Klebsiella pneumoniae, ATCC700603, read-out: MIC Kpn; for MIC Kpn: Kpn = K. pneumoniae
[5] = tested on: B. thailandensis ATCC E264; assay: microbe, parasite or virus in culture; conditions: for MIC: Burkholderia thailandensis, ATCCE264, read-out: MIC Bt
[6] = tested on: S. pneumoniae ATCC 51916; assay: MIC, S. pneumoniae ATCC 51916; conditions: for MIC: Streptococcus pneumoniae, ATCC51916, Spn = S. pneumoniae
[7] = tested on: P. aeruginosa ATCC 15692; assay: MIC, P. aeruginosa ATCC 15692; conditions: for MIC: Pseudomonas aeruginosa, ATCC15692, Pa = P. aeruginosa
[8] = tested on: E. coli ATCC 25922; assay: MIC, E. coli ATCC 25922; conditions: for MIC: Escherichia coli
[9] = tested on: F. tularensis holarctica LVS; assay: microbe, parasite or virus in culture; conditions: for MIC: Francisella tularensis, read-out: MIC Ft; for MIC Ft: Ft = F. tularensis, strain not given
[10] = ATCC13709, S. aureus, Alamar Blue read after overnight incubation at 35° C.
[11] = ATCC25922, E. coli, Alamar Blue read after overnight incubation at 35° C.
[12] = ATCC25922, Ec = E. coli, strain not given
[13] = S. aureus, Alamar Blue read after overnight incubation at 35° C.
[14] = E. coli, Alamar Blue read after overnight incubation at 35° C.

Row | Compound | MIC Sa [1, 13] | MIC Sa ([1]; Sa = S. aureus) | MIC Yp [2] | MIC Ab [3] | MIC Kpn [4] | MIC Bt [5] | MIC Spn [6] | MIC Pa [7] | MIC Ec [8, 14] | MIC Ec ([8]; Ec = E. coli, strain not given) | MIC Ft [9] | other results
1 | CNc1cc(F)cc2c1[nH]c1nc(Oc3cnc4cccnc4c3)nc(N3CC4C(N)C4C3)c12 (stereo not drawn) [4.035] | – | – | – | – | – | – | – | – | – | – | – | MIC [1, 10]: ≤ 0.5 µg/mL; MIC ([1]; ATCC13709, Sa = S. aureus): ≤ 0.5 µg/mL; MIC [2]: ≤ 0.5 µg/mL; MIC [3]: ≤ 0.5 µg/mL; MIC [4]: 2 µg/mL (≈ 4.38 µM); MIC [5]: ≤ 0.5 µg/mL; MIC [6]: ≤ 0.5 µg/mL; MIC [7]: 4 µg/mL (≈ 8.76 µM); MIC [8, 11]: ≤ 0.5 µg/mL; MIC [8, 12]: ≤ 0.5 µg/mL; MIC [9]: 1 µg/mL (≈ 2.19 µM)
2 | CNc1cc(F)cc2c1[nH]c1nc(Oc3cnc4cccnc4c3)nc(N3CC4(CCC4N)C3)c12 (stereo not drawn) [4.045] | ≤0.5 µg/mL | ≤0.5 µg/mL | ≤0.5 µg/mL | ≤0.5 µg/mL | 8 µg/mL (≈ 17 µM) | 1 µg/mL (≈ 2.13 µM) | ≤0.5 µg/mL | 4 µg/mL (≈ 8.5 µM) | ≤0.5 µg/mL | ≤0.5 µg/mL | 2 µg/mL (≈ 4.25 µM) | –
3 | CNc1cc(F)cc2c1[nH]c1nc(Oc3cnc(C)nc3)nc(N3CCC4(CC4N)C3)c12 (stereo not drawn) [4.066] | – | – | – | – | – | – | – | – | – | – | – | MIC [1, 10]: ≤ 0.5 µg/mL; MIC ([1]; ATCC13709, Sa = S. aureus): ≤ 0.5 µg/mL; MIC [2]: ≤ 0.5 µg/mL; MIC [3]: ≤ 0.5 µg/mL; MIC [4]: 2 µg/mL (≈ 4.6 µM); MIC [5]: ≤ 0.5 µg/mL; MIC [6]: ≤ 0.5 µg/mL; MIC [7]: 2 µg/mL (≈ 4.6 µM); MIC [8, 11]: ≤ 0.5 µg/mL; MIC [8, 12]: ≤ 0.5 µg/mL; MIC [9]: 1 µg/mL (≈ 2.3 µM)
4 | CNc1cc(F)cc2c1[nH]c1nc(Oc3cnc(C)nc3)nc(N3CC(N)C4(CC4)C3)c12 (stereo not drawn) [4.069] | – | ≤0.5 µg/mL | ≤0.5 µg/mL | ≤0.5 µg/mL | 2 µg/mL (≈ 4.6 µM) | ≤0.5 µg/mL | ≤0.5 µg/mL | 4 µg/mL (≈ 9.21 µM) | – | ≤0.5 µg/mL | 2 µg/mL (≈ 4.6 µM) | –
5 | CNc1cc(F)cc2c1[nH]c1nc(Oc3cnc(C)nc3)nc(N3CC4C(N)C4C3)c12 (stereo not drawn) [4.073] | ≤0.5 µg/mL | ≤0.5 µg/mL | ≤0.5 µg/mL | ≤0.5 µg/mL | 2 µg/mL (≈ 4.76 µM) | ≤0.5 µg/mL | ≤0.5 µg/mL | 4 µg/mL (≈ 9.51 µM) | ≤0.5 µg/mL | ≤0.5 µg/mL | 1 µg/mL (≈ 2.38 µM) | –
6 | CNc1cc(F)cc2c1[nH]c1nc(Oc3cnc(C)nc3)nc(N3CC4CCC(N)C4C3)c12 (stereo not drawn) [4.076] | ≤0.5 µg/mL | ≤0.5 µg/mL | ≤0.5 µg/mL | ≤0.5 µg/mL | 4 µg/mL (≈ 8.92 µM) | 1 µg/mL (≈ 2.23 µM) | ≤0.5 µg/mL | 4 µg/mL (≈ 8.92 µM) | ≤0.5 µg/mL | ≤0.5 µg/mL | 2 µg/mL (≈ 4.46 µM) | –
7 | CNc1cc(F)cc2c1[nH]c1nc(Oc3cnc(C)nc3)nc(N3CC4CCCNC4C3)c12 (stereo not drawn) [4.079] | ≤0.5 µg/mL | ≤0.5 µg/mL | ≤0.5 µg/mL | ≤0.5 µg/mL | 8 µg/mL (≈ 17.8 µM) | 1 µg/mL (≈ 2.23 µM) | ≤0.5 µg/mL | 4 µg/mL (≈ 8.92 µM) | ≤0.5 µg/mL | ≤0.5 µg/mL | 4 µg/mL (≈ 8.92 µM) | –
8 | CNc1cc(F)cc2c1[nH]c1nc(Oc3cnc(C)nc3)nc(N3CC4CC(N)C4C3)c12 (stereo not drawn) [4.084] | ≤0.5 µg/mL | ≤0.5 µg/mL | ≤0.5 µg/mL | ≤0.5 µg/mL | 4 µg/mL (≈ 9.21 µM) | ≤0.5 µg/mL | ≤0.5 µg/mL | 1 µg/mL (≈ 2.3 µM) | ≤0.5 µg/mL | ≤0.5 µg/mL | ≤0.5 µg/mL | –
9 | CNc1cc(F)cc2c1[nH]c1nc(Oc3cnc(C)nc3)nc(N3C[C@H]4CCN[C@H]4C3)c12 [4.103] | ≤0.5 µg/mL | ≤0.5 µg/mL | ≤0.5 µg/mL | ≤0.5 µg/mL | 2 µg/mL (≈ 4.6 µM) | ≤0.5 µg/mL | ≤0.5 µg/mL | 2 µg/mL (≈ 4.6 µM) | ≤0.5 µg/mL | ≤0.5 µg/mL | 1 µg/mL (≈ 2.3 µM) | –
10 | CNc1cc(F)cc2c1[nH]c1nc(Oc3cnc(C)nc3)nc(N3CC4(CCC4N)C3)c12 (stereo not drawn) [4.105] | – | ≤0.5 µg/mL | ≤0.5 µg/mL | ≤0.5 µg/mL | 2 µg/mL (≈ 4.6 µM) | ≤0.5 µg/mL | ≤0.5 µg/mL | 1 µg/mL (≈ 2.3 µM) | – | ≤0.5 µg/mL | 1 µg/mL (≈ 2.3 µM) | –
11 | CNc1cc(F)cc2c1[nH]c1nc(Oc3cnc(C)nc3)nc(N3CCC4(CCC4N)C3)c12 (stereo not drawn) [4.117] | ≤0.5 µg/mL | ≤0.5 µg/mL | ≤0.5 µg/mL | ≤0.5 µg/mL | 2 µg/mL (≈ 4.46 µM) | ≤0.5 µg/mL | ≤0.5 µg/mL | 1 µg/mL (≈ 2.23 µM) | ≤0.5 µg/mL | ≤0.5 µg/mL | 1 µg/mL (≈ 2.23 µM) | –
12 | CNc1cc(F)cc2c1[nH]c1nc(Oc3cnc(C)nc3)nc(N3CC4CC3C[C@@H]4N)c12 (stereo partly drawn) [4.131] | ≤0.5 µg/mL | ≤0.5 µg/mL | ≤0.5 µg/mL | ≤0.5 µg/mL | 2 µg/mL (≈ 4.6 µM) | ≤0.5 µg/mL | ≤0.5 µg/mL | 1 µg/mL (≈ 2.3 µM) | ≤0.5 µg/mL | ≤0.5 µg/mL | ≤0.5 µg/mL | –
13 | CNc1cc(F)cc2c1[nH]c1nc(Oc3ccc4cncnc4c3)nc(N3CC4CC(N)C4C3)c12 (stereo not drawn) [4.365] | ≤0.5 µg/mL | ≤0.5 µg/mL | ≤0.5 µg/mL | ≤0.5 µg/mL | 4 µg/mL (≈ 8.5 µM) | ≤0.5 µg/mL | ≤0.5 µg/mL | 1 µg/mL (≈ 2.13 µM) | ≤0.5 µg/mL | ≤0.5 µg/mL | 1 µg/mL (≈ 2.13 µM) | –
14 | CNc1cc(F)c(C)c2c1[nH]c1nc(Oc3cnc(C)nc3)nc(N3C[C@H](N)C4(CC4)C3)c12 [6.29] | – | – | – | – | – | – | – | – | – | – | – | MIC [1, 10]: ≤ 0.5 µg/mL; MIC ([1]; ATCC13709, Sa = S. aureus): ≤ 0.5 µg/mL; MIC [3]: ≤ 0.5 µg/mL; MIC [4]: 2 µg/mL (≈ 4.46 µM); MIC [6]: ≤ 0.5 µg/mL; MIC [7]: 2 µg/mL (≈ 4.46 µM); MIC [8, 11]: ≤ 0.5 µg/mL; MIC [8, 12]: ≤ 0.5 µg/mL
